According to patent US12139520B2 (priority 2020, dated 2024):
Bridge positions count the residues as written; N and C are the ends. Square brackets hold non-standard residues; d marks the D form. Peptide text beside a SMILES is read from it. Hyp = O=C(O)[C@@H]1C[C@@H](O)CN1

Tests used:
hAMY3 receptor = target: T1, hAMY3 receptor (Homo sapiens, UniProt O60896+P30988); test: cAMP assay for in vitro receptor activation, hAMY3-R; type: cell-based; conditions: cAMP assay, hAMY3 receptor; read-out: hAMY3R EC50
T1 sequence (P30988 25-474): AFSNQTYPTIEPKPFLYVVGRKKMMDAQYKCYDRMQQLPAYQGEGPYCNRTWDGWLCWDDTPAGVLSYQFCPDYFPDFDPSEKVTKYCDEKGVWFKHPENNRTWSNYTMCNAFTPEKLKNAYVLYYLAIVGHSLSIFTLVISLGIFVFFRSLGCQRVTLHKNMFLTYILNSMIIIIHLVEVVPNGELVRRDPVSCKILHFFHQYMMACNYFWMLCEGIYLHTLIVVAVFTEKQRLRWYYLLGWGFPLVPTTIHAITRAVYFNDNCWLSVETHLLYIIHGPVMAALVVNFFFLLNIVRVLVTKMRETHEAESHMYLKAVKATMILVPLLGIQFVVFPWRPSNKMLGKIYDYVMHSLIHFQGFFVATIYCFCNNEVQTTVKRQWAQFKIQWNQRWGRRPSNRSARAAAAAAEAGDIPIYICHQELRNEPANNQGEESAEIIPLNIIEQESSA
T1 sequence (O60896 24-148 partner): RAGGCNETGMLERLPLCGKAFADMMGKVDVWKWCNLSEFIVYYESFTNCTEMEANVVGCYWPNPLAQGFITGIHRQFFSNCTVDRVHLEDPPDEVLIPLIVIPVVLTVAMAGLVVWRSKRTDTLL
Procedure, shortened: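 Monoclonal cell line stably overexpressing hAMY3 receptor, plated in DPBS with 0.05% casein and 0.5 mM IBMX, was stimulated with graded compound doses for 30 min at room temperature. cAMP accumulation was read by time-resolved FRET one hour after adding detection reagents.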

[1] = Physical stability of peptide analogues (Thioflavin T fibrillation); type: physicochemical; conditions: maximum ThT signal normalized between hAMY maximum and buffer background; 40° C., shaking, four days; pH 7 per table title
Procedure, shortened: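 ThT fluorescence (450 nm excitation, 480 nm emission; 4 μM dye) was read every 10 min over four days at 40° C under 700 rpm shaking stress, after 1 h in pH 4 acetate or pH 7 phosphate (50 mM). Peak smoothed signal expressed as percent, scaled between buffer background and hAMY maximum.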

Compound | EC50 (hAMY3 receptor) [nM] | Max ThT signal (%) [1] [%]
CC[C@H](C)[C@H](NC(=O)[C@H](CC(N)=O)NC(=O)[C@@H](NC(=O)[C@H](CCCNC(=N)N)NC(=O)[C@@H]1CCCN1C(=O)[C@H](C)NC(=O)[C@@H](NC(=O)[C@H](CC(N)=O)NC(=O)[C@H](CC(=O)O)NC(=O)[C@H](CCCCN)NC(=O)[C@H](CC(=O)O)NC(=O)[C@H](CCCCN)NC(=O)[C@H](CC(=O)O)NC(=O)[C@@H](NC(=O)[C@H](Cc1ccccc1)NC(=O)[C@H](CCC(N)=O)NC(=O)[C@H](Cc1ccc(O)cc1)NC(=O)[C@@H](NC(=O)[C@H](CCC(N)=O)NC(=O)[C@H](Cc1c[nH]cn1)NC(=O)[C@H](C)NC(=O)[C@H](CC(C)C)NC(=O)[C@H](Cc1c[nH]c2ccccc12)NC(=O)[C@H](CCC(N)=O)NC(=O)[C@@H](NC(=O)[C@@H](NC(=O)[C@@H]1CSSC[C@H](NC(=O)CN)C(=O)N[C@@H](CCCNC(=N)N)C(=O)N[C@@H](Cc2ccccc2)C(=O)NCC(=O)N[C@@H]([C@@H](C)O)C(=O)N1)[C@@H](C)O)C(C)C)[C@@H](C)CC)[C@@H](C)O)C(C)C)[C@@H](C)O)C(=O)NCC(=O)N1CCC[C@H]1C(=O)N[C@@H](CC(N)=O)C(=O)NCC(=O)N1C[C@H](O)C[C@H]1C(N)=O [compound 331] (H-GCRFGTCTVQWLAHQIYQFTDKDKDNVAPRTNIGPNG[Hyp]-NH2; disulfide 2-7; N-terminus assumed) | 0.006 | 21.150
CC[C@H](C)[C@H](NC(=O)[C@H](CCCCN)NC(=O)[C@@H](NC(=O)[C@H](CCCNC(=N)N)NC(=O)[C@@H]1CCCN1C(=O)[C@H](C)NC(=O)[C@@H](NC(=O)[C@H](CC(N)=O)NC(=O)[C@H](CC(=O)O)NC(=O)[C@H](CCCCN)NC(=O)[C@H](CC(=O)O)NC(=O)[C@H](CCCCN)NC(=O)[C@H](CC(=O)O)NC(=O)[C@@H](NC(=O)[C@H](Cc1ccccc1)NC(=O)[C@H](CCC(N)=O)NC(=O)[C@H](Cc1ccc(O)cc1)NC(=O)[C@@H](NC(=O)[C@H](CCC(N)=O)NC(=O)[C@H](Cc1c[nH]cn1)NC(=O)[C@H](C)NC(=O)[C@H](CC(C)C)NC(=O)[C@H](Cc1c[nH]c2ccccc12)NC(=O)[C@H](CCC(N)=O)NC(=O)[C@@H](NC(=O)[C@@H](NC(=O)[C@@H]1CSSC[C@H](NC(=O)CN)C(=O)N[C@@H](CCCNC(=N)N)C(=O)N[C@@H](Cc2ccccc2)C(=O)NCC(=O)N[C@@H]([C@@H](C)O)C(=O)N1)[C@@H](C)O)C(C)C)[C@@H](C)CC)[C@@H](C)O)C(C)C)[C@@H](C)O)C(=O)NCC(=O)N1CCC[C@H]1C(=O)N[C@@H](CCC(N)=O)C(=O)NCC(=O)N1C[C@H](O)C[C@H]1C(N)=O [compound 336] (H-GCRFGTCTVQWLAHQIYQFTDKDKDNVAPRTKIGPQG[Hyp]-NH2; disulfide 2-7; N-terminus assumed) | 0.029 | 18.700
CC[C@H](C)[C@H](NC(=O)[C@H](CCC(N)=O)NC(=O)[C@H](Cc1c[nH]cn1)NC(=O)[C@H](C)NC(=O)[C@H](CC(C)C)NC(=O)[C@H](Cc1c[nH]c2ccccc12)NC(=O)[C@H](CCC(N)=O)NC(=O)[C@@H](NC(=O)[C@@H](NC(=O)[C@@H]1CSSC[C@H](NC(=O)CN)C(=O)N[C@@H](CCCNC(=N)N)C(=O)N[C@@H](Cc2ccccc2)C(=O)NCC(=O)N[C@@H]([C@@H](C)O)C(=O)N1)[C@@H](C)O)C(C)C)C(=O)N[C@@H](Cc1ccc(O)cc1)C(=O)N[C@@H](CCC(N)=O)C(=O)N[C@@H](Cc1ccccc1)C(=O)N[C@H](C(=O)N[C@@H](CC(=O)O)C(=O)N[C@@H](CCCCN)C(=O)N[C@@H](CC(=O)O)C(=O)N[C@@H](CCCCN)C(=O)N[C@@H](CC(=O)O)C(=O)N[C@@H](CC(N)=O)C(=O)N[C@H](C(=O)N[C@@H](C)C(=O)N1CCC[C@H]1C(=O)N[C@@H](CCCNC(=N)N)C(=O)N[C@H](C(=O)N[C@@H](CCCCN)C(=O)N[C@H](C(=O)N[C@@H](CO)C(=O)N1CCC[C@H]1C(=O)N[C@@H](CC(N)=O)C(=O)NCC(=O)N1C[C@H](O)C[C@H]1C(N)=O)[C@@H](C)CC)[C@@H](C)O)C(C)C)[C@@H](C)O [compound 337] (H-GCRFGTCTVQWLAHQIYQFTDKDKDNVAPRTKISPNG[Hyp]-NH2; disulfide 2-7; N-terminus assumed) | 0.019 | 16.800
CC[C@H](C)[C@H](NC(=O)[C@H](CCC(N)=O)NC(=O)[C@H](Cc1c[nH]cn1)NC(=O)[C@H](C)NC(=O)[C@H](CC(C)C)NC(=O)[C@H](Cc1c[nH]c2ccccc12)NC(=O)[C@H](CCC(N)=O)NC(=O)[C@@H](NC(=O)[C@@H](NC(=O)[C@@H]1CSSC[C@H](NC(=O)CN)C(=O)N[C@@H](CCCNC(=N)N)C(=O)N[C@@H](Cc2ccccc2)C(=O)NCC(=O)N[C@@H]([C@@H](C)O)C(=O)N1)[C@@H](C)O)C(C)C)C(=O)N[C@@H](Cc1ccc(O)cc1)C(=O)N[C@@H](CCC(N)=O)C(=O)N[C@@H](Cc1ccccc1)C(=O)N[C@H](C(=O)N[C@@H](CC(=O)O)C(=O)N[C@@H](CCCCN)C(=O)N[C@@H](CC(=O)O)C(=O)N[C@@H](CCCCN)C(=O)N[C@@H](CC(=O)O)C(=O)N[C@@H](CC(N)=O)C(=O)N[C@H](C(=O)N[C@@H](C)C(=O)N1CCC[C@H]1C(=O)N[C@@H](CCCNC(=N)N)C(=O)N[C@H](C(=O)N[C@@H](CC(N)=O)C(=O)N[C@H](C(=O)N[C@@H](CO)C(=O)N1CCC[C@H]1C(=O)N[C@@H](CCC(N)=O)C(=O)NCC(=O)N[C@@H](Cc1ccc(O)cc1)C(N)=O)C(C)C)[C@@H](C)O)C(C)C)[C@@H](C)O [compound 340] (H-GCRFGTCTVQWLAHQIYQFTDKDKDNVAPRTNVSPQGY-NH2; disulfide 2-7; N-terminus assumed) | 0.022 | 1.700
CC[C@H](C)[C@H](NC(=O)[C@H](CCCCN)NC(=O)[C@@H](NC(=O)[C@H](CCCNC(=N)N)NC(=O)[C@@H]1CCCN1C(=O)[C@H](C)NC(=O)[C@@H](NC(=O)[C@H](CC(N)=O)NC(=O)[C@H](CC(=O)O)NC(=O)[C@H](CCCCN)NC(=O)[C@H](CC(=O)O)NC(=O)[C@H](CCCCN)NC(=O)[C@H](CC(=O)O)NC(=O)[C@@H](NC(=O)[C@H](Cc1ccccc1)NC(=O)[C@H](CCC(N)=O)NC(=O)[C@H](Cc1ccc(O)cc1)NC(=O)[C@@H](NC(=O)[C@H](CCC(N)=O)NC(=O)[C@H](Cc1c[nH]cn1)NC(=O)[C@H](C)NC(=O)[C@H](CC(C)C)NC(=O)[C@H](Cc1c[nH]c2ccccc12)NC(=O)[C@H](CCC(N)=O)NC(=O)[C@@H](NC(=O)[C@@H](NC(=O)[C@@H]1CSSC[C@H](NC(=O)CN)C(=O)N[C@@H](CCCNC(=N)N)C(=O)N[C@@H](Cc2ccccc2)C(=O)NCC(=O)N[C@@H]([C@@H](C)O)C(=O)N1)[C@@H](C)O)C(C)C)[C@@H](C)CC)[C@@H](C)O)C(C)C)[C@@H](C)O)C(=O)NCC(=O)N1CCC[C@H]1C(=O)N[C@@H](CC(N)=O)C(=O)NCC(=O)N1C[C@H](O)C[C@H]1C(N)=O [compound 343] (H-GCRFGTCTVQWLAHQIYQFTDKDKDNVAPRTKIGPNG[Hyp]-NH2; disulfide 2-7; N-terminus assumed) | 0.017 | 24.850
CC[C@H](C)[C@H](NC(=O)[C@H](CCC(N)=O)NC(=O)[C@H](Cc1c[nH]cn1)NC(=O)[C@H](C)NC(=O)[C@H](CC(C)C)NC(=O)[C@H](Cc1c[nH]c2ccccc12)NC(=O)[C@H](CCC(N)=O)NC(=O)[C@@H](NC(=O)[C@@H](NC(=O)[C@@H]1CSSC[C@H](NC(=O)CN)C(=O)N[C@@H](CCCNC(=N)N)C(=O)N[C@@H](Cc2ccccc2)C(=O)NCC(=O)N[C@@H]([C@@H](C)O)C(=O)N1)[C@@H](C)O)C(C)C)C(=O)N[C@@H](Cc1ccc(O)cc1)C(=O)N[C@@H](CCC(N)=O)C(=O)N[C@@H](Cc1ccccc1)C(=O)N[C@H](C(=O)N[C@@H](CC(=O)O)C(=O)N[C@@H](CCCCN)C(=O)N[C@@H](CC(=O)O)C(=O)N[C@@H](CCCCN)C(=O)N[C@@H](CC(=O)O)C(=O)N[C@@H](CC(N)=O)C(=O)N[C@H](C(=O)N[C@@H](C)C(=O)N1CCC[C@H]1C(=O)N[C@@H](CCCNC(=N)N)C(=O)N[C@@H](CO)C(=O)N[C@@H](CC(N)=O)C(=O)N[C@H](C(=O)N[C@@H](CO)C(=O)N1CCC[C@H]1C(=O)N[C@@H](CCC(N)=O)C(=O)NCC(=O)N[C@@H](Cc1ccc(O)cc1)C(N)=O)C(C)C)C(C)C)[C@@H](C)O [compound 345] (H-GCRFGTCTVQWLAHQIYQFTDKDKDNVAPRSNVSPQGY-NH2; disulfide 2-7; N-terminus assumed) | 0.051 | 3.250
